Assays:
Assay type in all cases: cell-based, human
HCC38 [1] = assay: Superoxide anion generation, DHE probe; conditions: IC50 concentration, 24 h
Description: (§1) The level of superoxide anion (O2^•−) was determined by microplate spectrofluorimetry with dihydroethidium (hydroethidine, DHE) (Life Technologies, Carlsbad, CA, USA), which is the most commonly used fluorogenic probe for monitoring the intracellular production of superoxide anion O2^•− [41]. […] Thanks to this shift, DHE can be used as a sensitive probe for cellular ROS. The reaction between superoxide and DHE generates a highly specific red fluorescent product, 2-hydroxyethidium (2-OH-E^+).
(§2) The cells were seeded in black 96-well fluorometric microplates at a density of 10 × 10^3 cells per well. […] After incubation, the medium was removed, the cell monolayer in the wells was washed twice with HBSS (140 mM NaCl, 5 mM KCl, 0.8 mM MgCl2, 1.8 mM CaCl2, 1 mM Na2HPO4, 10 mM HEPES and 1% glucose) and 50 μL of DHE solution in HBSS was added to each well (final probe concentration 5 μmol/L). Cells were incubated with the probe for 30 min in the dark in an incubator (37 °C), and then fluorescence was measured. The measurement was performed at the following excitation and fluorescence emission wavelengths: λex = 498 nm/λem = 582 nm. Fluorescence measurements were made on a Perkin-Elmer LS-5B spectrofluorometer (MA, USA). Fluorescence intensity values for control cells were arbitrarily set as 100%. The results are presented as percentages of control cell values, calculated relative to the fluorescence intensity of the controls (100%): sample fluorescence was calculated as Δf in relation to the controls.

Hec-1-A [2] = assay: Nitric oxide (RNS) generation, DAF-FM diacetate probe; conditions: IC50 concentration, 24 h
Description: (§3) Diaminofluorescein-FM diacetate (DAF-FM diacetate, Invitrogen, Carlsbad, CA, USA), is a widely employed cell permeant fluorescent reagent for the detection and quantification of reactive nitrogen species (RNS), particularly nitric oxide (NO). […] However, upon reaction with NO, it undergoes a transformation that yields a highly fluorescent benzotriazole derivative (excitation/emission maxima: λex = 495, λem = 515 nm).
(§4) The cells were seeded in black 96-well fluorometric microplates at a density of 10 × 10^3 cells per well. […] After incubation with the compounds, the medium was removed, the cell monolayer in the wells was washed twice with HBSS (140 mM NaCl, 5 mM KCl, 0.8 mM MgCl2, 1.8 mM CaCl2, 1 mM Na2HPO4, 10 mM HEPES and 1% glucose) and 50 μL of DAF-FM diacetate solution in HBSS was added to each well (final probe concentration 5 μmol/L). Cells were incubated with the probe for 30 min in the dark in an incubator (37 °C). After incubation, the probe was removed and replaced with fresh HBSS buffer and then incubated for an additional 30 min to allow for complete de-esterification of the intra cellular diacetates. After this time, the fluorescence was measured. The measurement was performed at the following excitation and fluorescence emission wavelengths: λex = 495 nm/λem = 515 nm. Fluorescence was measured on a Perkin-Elmer LS-5B spectrofluorometer (MA, USA). Fluorescence intensity values for control cells were arbitrarily set as 100%. The results are presented as percentages of control cells calculated on the basis of a comparison of the fluorescence intensity ratio of test samples and controls (100%) (fluorescence of samples was calculated as Δf in relation to the control).

HCC38 [3] = assay: as above; conditions: IC50 concentration, 24 h
Description: as §3, §4

RBCs = assay: Erythrocyte morphology, phase contrast microscopy; conditions: 100 µmol/L; 24 h, 37 °C
Description: The experiments on human blood were performed in accordance with Polish national guidelines, and the study protocols were approved by the Bioethics Committee of the Medical University of Lodz, Poland: approval no (RNN/104/20/KE). The blood samples were obtained from healthy donors at the Blood Donation Centre in Lodz. The procedure for […] for erythrotoxicity studies is given in a previous paper. The influence of the synthesized compounds, together with a reference compound on RBC membrane integrity, was performed by lysis assay, described elsewhere. Briefly, 2% RBC suspension in 0.9% NaCl was incubated at 37 °C for 24 h with the tested compounds at concentrations of 100 µmol/L, 50 µmol/L, 25 µmol/L, 10 µmol/L and 1 µmol/L. The samples were centrifuged at 3000 rpm for 10 min, and the absorbance of the supernatant was measured at 550 nm. The results are presented as a percentage of hemolysis where a sample containing 10 μL of 2.0% v/v Triton X-100 was regarded as a positive control contributing to 100% of hemolysis. A sample containing saline solution represented the spontaneous hemolysis of RBCs (control). The experiments were conducted using at least three different biological materials (n = 3). […] Additionally, erythrocyte morphology was evaluated using a phase contrast Opta-Tech inverted microscope at 400× magnification.

Hec-1-A [4] = assay: Superoxide anion generation, DHE probe; conditions: IC50 concentration, 24 h
Description: as §1, §2

HCC38 [5] = assay: Mitochondrial potential (ΔΨm), JC-1 method; conditions: IC50 concentration, 24 h
Source text: 5,5,6,6-Tetrachloro-1,1,3,3-tetraethylbenzimidazolylcarbocyanine iodide (JC-1) is a cationic carbocyanine dye commonly used as a fluorescent probe to detect mitochondrial membrane depolarization. In living cells with an intact mitochondrial membrane, the lipophilic JC-1 penetrates the negatively charged mitochondrial matrix as a monomer. It then forms fluorescent aggregates with red-orange fluorescence (λex = 514 nm, λem = 590 nm). During depolarization of the mitochondrial membrane or in apoptotic cells, the concentration of JC-1 decreases, and the aggregates disintegrate into monomers emitting green fluorescence (λex = 514 nm, λem = 529 nm). The fluorescence ratio of aggregates (λem = 590 nm) and monomers (λem = 529 nm)—590 nm/529 nm—reflects the level of damage to the mitochondrial membrane.
The cells were seeded in black 96-well fluorometric microplates at a density of 10 × 10^3 cells per well. […] After incubation with the compounds, the medium was removed, the cell monolayer in the wells was washed twice with HBSS (140 mM NaCl, 5 mM KCl, 0.8 mM MgCl2, 1.8 mM CaCl2, 1 mM Na2HPO4, 10 mM HEPES and 1% glucose) and 50 μL of JC-1 solution in HBSS was added to each well (final probe concentration 5 μmol/L). Cells were incubated with the probe for 30 min in the dark in an incubator (37 °C). After incubation, the probe was removed and replaced with fresh HBSS buffer. Fluorescence measurements (Perkin-Elmer LS-5B spectrofluorometer, MA, USA) of JC-1 monomers and aggregates were made at the following excitation and emission wavelengths: λex = 514 nm, λem = 529 nm (monomers), λex = 514 nm, λem = 590 nm (aggregates). The results of the tested samples are presented as the percentage fluorescence ratio of JC-1 aggregates and JC-1 monomers relative to the fluorescence ratio of JC-1 aggregates and JC-1 monomers of the control, which was assumed to be 100%.
A positive control was formed of cells pre-incubated with 5 µmol/L carbonyl cyanide m-chlorophenylhydrazone (CCCP), a chemical inhibitor of oxidative phosphorylation that acts by uncoupling the protons flowing along the electrochemical gradient from phosphorylation.

O=C1/C(=C/c2ccccc2)COc2ccccc21 [Compound 1]
increase in superoxide anion / ROS relative to control (DHE probe) (HCC38 [1]): approximately 20%
increase in nitric oxide production (DAF-FM) (Hec-1-A [2]): approximately 20%
increase in nitric oxide production (DAF-FM) (HCC38 [3]): approximately 15%

COc1cccc(/C=C2/C(=O)c3ccccc3OC2c2ccccc2)c1 (stereo not drawn) [Compound 3]
RBC morphology (in words) (RBCs): appearance of single eryptocytes
rise of superoxide anion level compared to the control (DHE probe) (Hec-1-A [4]): approximately 20%

O=C1/C(=C/c2ccccc2)C(c2ccccc2)Oc2ccccc21 (stereo not drawn) [Compound 5]
change in mitochondrial potential (in words) (HCC38 [5]): strong hyperpolarization

Reference: PMC11312998, “Molecular Pro-Apoptotic Activities of Flavanone Derivatives in Cyclodextrin Complexes: New Implications for Anticancer Therapy” (International Journal of Molecular Sciences, 2024)
